Patent US10202360B2 (CELGENE QUANTICEL RESEARCH, INC., priority 2016, dated 2019)

Molecular target: CREBBP (Homo sapiens (Human), UniProt Q92793)
Assay: In vitro enzyme inhibition assay - CREBBP inhibition (AlphaScreen, biotinylated H4-tetraacetyl peptide)
Assay type: binding
Settings: Table 28; AlphaScreen, H4-tetraacetyl peptide
Protocol: Determination of the IC50 for the CREBBP inhibitors disclosed herein was performed as follows: CREBBP was cloned and expressed in E. Coli as His-tag protein and purified by Nickel affinity and gel-filtration chromatography. […] CREBBP binding and inhibition was assessed by monitoring the interaction of biotinylated H4-tetraacetyl peptide (AnaSpec, H4K5/8/12/16(Ac), biotin-labeled) with the target using the AlphaScreen technology (Perkin Elmer). In a 384-well ProxiPlate CREBBP (50 nM final) was combined with peptide (20 nM final) in 50 mM HEPES (pH 7.3), 10 mM NaCl, 0.25 mM TCEP, 0.1% (w/v) BSA, and 0.005% (w/v) Brij-35 either in the presence of DMSO (final 0.4% DMSO) or compound dilution series in DMSO. After 20-minute incubation at room temperature, Alpha streptavidin donor beads and Nickel Chelate acceptor beads were added to a final concentration of 5 μg/mL. After two hours of equilibration, plates were read on an Envision instrument and the IC50 was calculated using a four parameter non-linear curve fit.
The ability of the compounds disclosed herein to inhibit CBP activity was quantified and the respective IC50 value was determined.

Sequence of CREBBP (Q92793 1081-1197): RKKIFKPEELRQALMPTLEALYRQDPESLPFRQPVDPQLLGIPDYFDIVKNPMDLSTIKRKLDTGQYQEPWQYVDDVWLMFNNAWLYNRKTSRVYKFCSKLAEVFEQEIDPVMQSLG

| Structure (SMILES) | IC50 |
| --- | --- |
| Cc1cc(Cl)cc(Cl)c1Oc1nc(NS(C)(=O)=O)cc(-c2ccc(=O)n(C)c2)n1 [Example 29, N-[2-(2,4-Dichloro-6-methyl-phenoxy)-6-(1-methyl-6-oxo-1,6-dihydro-pyridin-3-yl)-pyrimidin-4-yl]-methanesulfonamide] | < 0.5 µM |
| CCS(=O)(=O)Nc1cc(-c2ccc(=O)n(C)c2)nc(Oc2c(C)cc(Cl)cc2Cl)n1 [Example 30, Ethanesulfonic acid [2-(2,4-dichloro-6-methyl-phenoxy)-6-(1-methyl-6-oxo-1,6-dihydro-pyridin-3-yl)-pyrimidin-4-yl]-amide] | < 0.5 µM |
| CCCS(=O)(=O)Nc1cc(-c2ccc(=O)n(C)c2)nc(Oc2c(C)cc(Cl)cc2Cl)n1 [Example 31, Propane-1-sulfonic acid [2-(2,4-dichloro-6-methyl-phenoxy)-6-(1-methyl-6-oxo-1,6-dihydro-pyridin-3-yl)-pyrimidin-4-yl]-amide] | < 0.5 µM |
| CCCCS(=O)(=O)Nc1cc(-c2ccc(=O)n(C)c2)nc(Oc2c(C)cc(Cl)cc2Cl)n1 [Example 32, Butane-1-sulfonic acid [2-(2,4-dichloro-6-methyl-phenoxy)-6-(1-methyl-6-oxo-1,6-dihydro-pyridin-3-yl)-pyrimidin-4-yl]-amide] | < 0.5 µM |
| Cc1cc(Cl)cc(Cl)c1Oc1nc(NS(=O)(=O)C(C)C)cc(-c2ccc(=O)n(C)c2)n1 [Example 34, Propane-2-sulfonic acid [2-(2,4-dichloro-6-methyl-phenoxy)-6-(1-methyl-6-oxo-1,6-dihydro-pyridin-3-yl)-pyrimidin-4-yl]-amide] | < 0.5 µM |
| CCCCS(=O)(=O)Nc1cc(-c2cc(C)c(=O)n(C)c2)nc(Oc2cc(OC)ccc2C#N)n1 [Example 35, Butane-1-sulfonic acid [2-(2-cyano-5-methoxy-phenoxy)-6-(1,5-dimethyl-6-oxo-1,6-dihydro-pyridin-3-yl)-pyrimidin-4-yl]-amide] | < 0.5 µM |
| CCCCS(=O)(=O)Nc1cc(-c2cc(C)c(=O)n(C)c2)nc(Oc2cc(C)ccc2C#N)n1 [Example 36, Butane-1-sulfonic acid [2-(2-cyano-5-methyl-phenoxy)-6-(1,5-dimethyl-6-oxo-1,6-dihydro-pyridin-3-yl)-pyrimidin-4-yl]-amide] | < 0.5 µM |
| CCCCS(=O)(=O)Nc1cc(-c2cc(C)c(=O)n(C)c2)nc(Oc2ccccc2C#N)n1 [Example 37, Butane-1-sulfonic acid [2-(2-cyano-phenoxy)-6-(1,5-dimethyl-6-oxo-1,6-dihydro-pyridin-3-yl)-pyrimidin-4-yl]-amide] | < 0.5 µM |
| CCCCS(=O)(=O)Nc1cc(-c2cc(C)c(=O)n(C)c2)nc(Oc2cc(C(C)C)ccc2Cl)n1 [Example 38, Butane-1-sulfonic acid [2-(2-chloro-5-isopropyl-phenoxy)-6-(1,5-dimethyl-6-oxo-1,6-dihydro-pyridin-3-yl)-pyrimidin-4-yl]-amide] | < 0.5 µM |
| CCCS(=O)(=O)Nc1cc(-c2cc(C)c(=O)n(C)c2)nc(Oc2cc(C(C)C)ccc2Cl)n1 [Example 39, Propane-1-sunnic acid [2-(2-chloro-5-isopropyl-phenoxy)-6-(1,5-dimethyl-6-oxo-1,6-dihydro-pyridin-3-yl)-pyrimidin-4-yl]-amide] | < 0.5 µM |
| Cc1cc(-c2cc(NS(=O)(=O)C(C)C)nc(Oc3cc(C(C)C)ccc3Cl)n2)cn(C)c1=O [Example 40, Propane-2-sulfonic acid [2-(2-chloro-5-isopropyl-phenoxy)-6-(1,5-dimethyl-6-oxo-1,6-dihydro-pyridin-3-yl)-pyrimidin-4-yl]-amide] | < 0.5 µM |
| CCCS(=O)(=O)Nc1cc(-c2cc(C)c(=O)n(C)c2)nc(Oc2c(Cl)cccc2CC)n1 [Example 42, Propane-1-sulfonic acid [2-(2-chloro-6-ethyl-phenoxy)-6-(1,5-dimethyl-6-oxo-1,6-dihydro-pyridin-3-yl)-pyrimidin-4-yl]-amide] | < 0.5 µM |
| CCc1cccc(Cl)c1Oc1nc(NS(=O)(=O)C(C)C)cc(-c2cc(C)c(=O)n(C)c2)n1 [Example 43, Propane-2-sulfonic acid [2-(2-chloro-6-ethyl-phenoxy)-6-(1,5-dimethyl-6-oxo-1,6-dihydro-pyridin-3-yl)-pyrimidin-4-yl]-amide] | < 0.5 µM |
| CCn1cc(-c2cc(NS(=O)(=O)C(C)C)nc(Oc3ccc(F)cc3F)n2)cc(C)c1=O [Example 44, Propane-2-sulfonic acid [2-(2,4-difluoro-phenoxy)-6-(1-ethyl-5-methyl-6-oxo-1,6-dihydro-pyridin-3-yl)-pyrimidin-4-yl]-amide] | < 0.5 µM |
| CCCn1cc(-c2cc(NS(=O)(=O)C(C)C)nc(Oc3ccc(F)cc3F)n2)cc(C)c1=O [Example 45, Propane-2-sulfonic acid [2-(2,4-difluoro-phenoxy)-6-(5-methyl-6-oxo-1-propyl-1,6-dihydro-pyridin-3-yl)-pyrimidin-4-yl]-amide] | 0.5 to 5 µM |
| CCCCn1cc(-c2cc(NS(=O)(=O)C(C)C)nc(Oc3ccc(F)cc3F)n2)cc(C)c1=O [Example 46, Propane-2-sulfonic acid [6-(1-butyl-5-methyl-6-oxo-1,6-dihydro-pyridin-3-yl)-2-(2,4-difluoro-phenoxy)-pyrimidin-4-yl]-amide] | > 5 µM |

The next lines start with the values.

| IC50 | Structure (SMILES) |
| --- | --- |
| < 0.5 µM | CCCCS(=O)(=O)Nc1cc(-c2cc(C)c(=O)n(C)c2)nc(Oc2ccccc2Cl)n1 [Example 16, Butane-1-sulfonic acid [2-(2-chloro-phenoxy)-6-(1,5-dimethyl-6-oxo-1,6-dihydro-pyridin-3-yl)-pyrimidin-4-yl]-amide] |
| < 0.5 µM | Cc1cc(-c2cc(NS(=O)(=O)C(C)C)nc(Oc3c(F)cccc3F)n2)cn(C)c1=O [Example 17, Propane-2-sulfonic acid [2-(2,6-difluoro-phenoxy)-6-(1,5-dimethyl-6-oxo-1,6-dihydro-pyridin-3-yl)-pyrimidin-4-yl]-amide] |
| < 0.5 µM | CCCCS(=O)(=O)Nc1cc(-c2cc(C)c(=O)n(C)c2)nc(Oc2c(F)cccc2F)n1 [Example 18, Butane-1-sulfonic acid [2-(2,6-difluoro-phenoxy)-6-(1,5-dimethyl-6-oxo-1,6-dihydro-pyridin-3-yl)-pyrimidin-4-yl]-amide] |
| < 0.5 µM | CCCCS(=O)(=O)Nc1cc(-c2cc(C)c(=O)n(C)c2)nc(Oc2c(C)cccc2F)n1 [Example 19, Butane-1-sulfonic acid [6-(1,5-dimethyl-6-oxo-1,6-dihydro-pyridin-3-yl)-2-(2-fluoro-6-methyl-phenoxy)-pyrimidin-4-yl]-amide] |
| < 0.5 µM | CCCS(=O)(=O)Nc1cc(-c2cc(C)c(=O)n(C)c2)nc(Oc2c(F)cccc2F)n1 [Example 20, Propane-1-sulfonic acid [2-(2,6-difluoro-phenoxy)-6-(1,5-dimethyl-6-oxo-1,6-dihydro-pyridin-3-yl)-pyrimidin-4-yl]-amide] |
| < 0.5 µM | CCCS(=O)(=O)Nc1cc(-c2cc(C)c(=O)n(C)c2)nc(Oc2c(C)cccc2F)n1 [Example 21, Propane-1-sulfonic acid [6-(1,5-dimethyl-6-oxo-1,6-dihydro-pyridin-3-yl)-2-(2-fluoro-6-methyl-phenoxy)-pyrimidin-4-yl]-amide] |
| < 0.5 µM | CCCCS(=O)(=O)Nc1cc(-c2cc(C)c(=O)n(C)c2)nc(Oc2c(C)cccc2C#N)n1 [Example 22, Butane-1-sulfonic acid [2-(2-cyano-6-methyl-phenoxy)-6-(1,5-dimethyl-6-oxo-1,6-dihydro-pyridin-3-yl)-pyrimidin-4-yl]-amide] |
| < 0.5 µM | CCCS(=O)(=O)Nc1cc(-c2cc(C)c(=O)n(C)c2)nc(Oc2c(C)cccc2C#N)n1 [Example 23, Propane-1-sulfonic acid [2-(2-cyano-6-methyl-phenoxy)-6-(1,5-dimethyl-6-oxo-1,6-dihydro-pyridin-3-yl)-pyrimidin-4-yl]-amide] |
| < 0.5 µM | Cc1cccc(C#N)c1Oc1nc(NS(=O)(=O)C(C)C)cc(-c2cc(C)c(=O)n(C)c2)n1 [Example 24, Propane-2-sulfonic acid [2-(2-cyano-6-methyl-phenoxy)-6-(1,5-dimethyl-6-oxo-1,6-dihydro-pyridin-3-yl)-pyrimidin-4-yl]-amide] |
| < 0.5 µM | Cc1cc(Cl)cc(Cl)c1Oc1nc(NS(C)(=O)=O)cc(-c2cc(C)c(=O)n(C)c2)n1 [Example 25, N-[2-(2,4-Dichloro-6-methyl-phenoxy)-6-(1,5-dimethyl-6-oxo-1,6-dihydro-pyridin-3-yl)-pyrimidin-4-yl]-methanesulfonamide] |
| < 0.5 µM | CCS(=O)(=O)Nc1cc(-c2cc(C)c(=O)n(C)c2)nc(Oc2c(C)cc(Cl)cc2Cl)n1 [Example 26, Ethanesulfonic acid [2-(2,4-dichloro-6-methyl-phenoxy)-6-(1,5-dimethyl-6-oxo-1,6-dihydro-pyridin-3-yl)-pyrimidin-4-yl]-amide] |
| < 0.5 µM | CCCS(=O)(=O)Nc1cc(-c2cc(C)c(=O)n(C)c2)nc(Oc2c(C)cc(Cl)cc2Cl)n1 [Example 27, Propane-1-sulfonic acid [2-(2,4-dichloro-6-methyl-phenoxy)-6-(1,5-dimethyl-6-oxo-1,6-dihydro-pyridin-3-yl)-pyrimidin-4-yl]-amide] |
| < 0.5 µM | CCCCS(=O)(=O)Nc1cc(-c2cc(C)c(=O)n(C)c2)nc(Oc2c(C)cc(Cl)cc2Cl)n1 [Example 28, Butane-1-sulfonic acid [2-(2,4-dichloro-6-methyl-phenoxy)-6-(1,5-dimethyl-6-oxo-1,6-dihydro-pyridin-3-yl)-pyrimidin-4-yl]-amide] |
